# Source: patent publication US4853470A, “3-(piperidinyl)- and 3-(pyrrolidinyl)-1H-indazoles” (Hoechst-Roussel Pharmaceuticals, Inc., priority 1988, dated 1989)
# Where two headings read alike, the source gives them in different places.
# Assays:
# [1] = test system: tetrabenazine induced ptosis; assay: tetrabenazine induced ptosis assay (antidepressant activity); type: in vivo, mice; conditions: Mus musculus, ip, read-out: ED50, inhibition of ptosis
# From the text: The 3-(piperidinyl)- and 3-(pyrrolidinyl)-1H-indazoles of the present invention are also useful as antidepressants by virtue of their ability to elicit an antidepressant response in mammals. […] Thus, for example,. the intraperitoneal (i.p.) dose effecting an estimated 50% inhibition of ptosis (ED50) in mice produced in this assay is as follows: […]
# [2] = test system: mean arterial blood pressure; assay: antihypertensive activity, indirect tail cuff method, spontaneous hypertensive rat; type: in vivo; conditions: third day
# Description: The compounds of the invention are also useful as antihypertensive agents due to their ability to depress blood pressure in mammals. Antihypertensive activity is measured in the spontaneous hypertensive rat by the indirect tail cuff method described in "Methods in Pharmacology," A. Schwartz, Ed., Vol. I, Appleton-Century Crofts, N.Y., 1971, p. 135. In this procedure a group of five animals are treated orally (p.o.) for three days with the test compound in relation to the control group of the same number. The drop in blood pressure is measured on the third day following administration. The antihypertensive activities of some of the compounds, expressed as mm decrease in mean arterial blood pressure are given below: […]
Structure (SMILES),ED50 ([1]; estimated 50% inhibition),other results
CN1CCC(c2nn(-c3ccccc3F)c3ccccc23)CC1.Cl [1-(2-Fluorophenyl)-3-(1-methyl-4-piperidinyl)-1H-indazole hydrochloride],1.7 mg/kg,–
CN1CCC(c2nn(-c3cccc(F)c3)c3ccccc23)CC1.Cl [1-(3-Fluorophenyl)-3-(1-methyl-4-piperidinyl)-1H-indazole hydrochloride],5 mg/kg,–
COC(=N)N1CCC(c2n[nH]c3ccccc23)CC1 [4-(1H-indazol-3-yl)piperidine-1-carboximidic acid methyl ester],–,Decrease in Blood Pressure ([2]; 3 mg/kg p.o.): 47 mm Hg
COC(=N)N1CCC(c2n[nH]c3cc(F)ccc23)CC1 [4-(6-fluoro-1H-indazol-3-yl)piperidine-1-carboximidic acid methyl ester],–,Decrease in Blood Pressure ([2]; 30 mg/kg p.o.): 88 mm Hg
CN1CCC(c2nn(-c3ccccc3F)c3cc(F)ccc23)CC1.O=C(O)/C=C/C(=O)O [6-Fluoro-1-(2-fluorophenyl)-3-(1-methyl-4-piperidinyl)-1H-indazole fumarate],6.3 mg/kg,–
"CN(C)CCC=C1c2ccccc2CCc2ccccc21 [amitriptyline, reference compound]",1.5 mg/kg,–
"N=C(N)NCCN1CCCCCCC1 [guanethidine, reference compound]",–,Decrease in Blood Pressure ([2]; 50 mg/kg p.o.): 20 mm Hg
"CN(C)CCCN1c2ccccc2CCc2ccccc21 [imipramine, reference compound]",–,ED50 [1]: 1.3 mg/kg
